Experimental data reported in patent publication US5270313A, “Sulfonamides and uses” (Hoffmann-La Roche Inc., priority 1991, dated 1993).

Legend:
vasoconstriction = experiment: Inhibitory activity on vasoconstriction in vivo in the rat (renal ischemia, renal blood flow); conditions: 10 minutes prior to 45 min renal ischemia, control reduced by 43±4%
Protocol: III. The inhibitory activity of the compounds of formula I on vasoconstriction can be observed in vivo in the rat in the test procedure described hereinafter:
Rats were anaesthetized with Na thiobutabarbital (100 mg/kg i.p.). […] A Doppler probe was placed around the left renal artery and attached to a Doppler measuring device. A renal ischemia was produced by pinching off the left renal artery at its point of emergence for 45 minutes. The test compounds were administered 10 minutes prior to the onset of the ischemia intra-arterially (i.a.) in doses of 5 mg/kg or intraveneously (i.v) in doses of 10 mg/kg. In control experiments, the renal blood flow was reduced by 43±4% in comparison to the pre-ischemic value.

endothelin receptors = experiment: Inhibition of endothelin binding to human placenta membranes (125I-endothelin); conditions: concentration required to inhibit the specific binding of 125I-endothelin by 50%, 125I-endothelin 20 pM, 20° C. for 2 hours or 4° C. for 24 hours
Protocol: I. Inhibition of endothelin binding to human placenta membranes (see Life Sci 44:1429 (1989)
Human placenta is homogenized in 5 mM Tris buffer, pH 7.4, which contains 1 mM MgCl2 and 250 mM sucrose. The product of the homogenization is centrifuged at 4° C. for 15 minutes at 3000 g. The supernatant containing the plasma membrane fractions is centrifuged for 30 minutes at 72000 g and the precipitate obtained from, in each case, 10 g of original tissue is suspended in 1 ml of 75 mM Tris buffer, pH 7.4, containing 25 mM MgCl2 and 250 mM sucrose and freeze-dried at -20° C. in 1 ml aliquots.
For the binding assay, the freeze-dried membrane preparations are thawed and, after centrifugation at 20° C. for 10 minutes at 25000 g, re-suspended in assay buffer (50 mM Tris buffer, pH 7.4, containing 25 mM MnCl2, 1 mM EDTA and 0.5% bovine serum albumin). 100 μl of this membrane suspension, containing 70 μg of protein, are incubated with 50 μl of ^125 I-endothelin (specific activity 2200 Ci/mMol) in assay buffer (25000 cpm, final concentration 20 pM) and 100 μl of assay buffer which contains varying concentrations of the test compound. The incubation is carried out at 20° C. for 2 hours or at 4° C. for 24 hours. The separation of free and membrane-bound radioligands is carried out by filtration over a glass fiber filter.
The inhibitory activity of compounds of formula I determined in this test procedure is given in Table 1 as the IC50, that is, as the concentration [μM] which is required to inhibit the specific binding of ^125 I-endothelin by 50%.

[1] = system: endothelin-induced contractions in isolated aorta rings; experiment: Inhibition of endothelin-induced contractions in isolated aorta rings of the rat; format: cell-based, rat (Wistar-Kyoto); conditions: for Dosage ratio (correcting shift): shift to higher values of the EC50 of endothelin induced by 100 μm of test compound, endothelium removed
Protocol: II. Inhibition of endothelin-induced contractions in isolated aorta rings of the rat
Rings with a thickness of 5 mm were dissected from the thorax aorta of adult Wistar-Kyoto rats. The endothelium was removed by rubbing the internal surface slightly. Each ring was immersed in an isolated bath at 37° C. in 10 ml of Krebs-Henseleit solution while gassing with 95% O2 and 5% CO2. The isometric tension of the rings was measured. The rings were stretched to an initial tension of 3 g. After incubation with the test compound or vehicle for 10 minutes cumulative doses of endothelin-1 were added. The activity of the test compound was determined by calculating the dosage ratio, that is, the correcting shift (shift to higher values) of the EC50 of endothelin induced by 100 μm of test compound, whereby EC50 denotes the endothelin concentration required for a half-maximum contraction. […] The EC50 of endothelin in the absence of test compounds is 0.3 nM.

| Compound | IC50 (endothelin receptors) [nM] | % Decrease in the renal of blood flow (vasoconstriction; i.a., 5 mg/kg) [%] | Dosage ratio (correcting shift) [1] | % Decrease in the renal of blood flow (vasoconstriction; i.v., 10 mg/kg) [%] | EC50 ([1]; in the absence of test compounds, half-maximum contraction) [nM] |
| --- | --- | --- | --- | --- | --- |
| CSc1ccccc1Cc1c(NS(=O)(=O)c2ccc(C(C)C)cc2)ncnc1OCCO [Example 66] | 500 | – | 96 | – | – |
| Cc1ccc(-c2c(NS(=O)(=O)c3ccc(C(C)C)cc3)ncnc2OCCO)cc1 [Example 83] | 700 | – | 86 | 29 | – |
| Cc1ccc(-c2c(NS(=O)(=O)c3ccc(C(C)(C)C)cc3)ncnc2OCCO)cc1 [Example 84, p-tert-butyl-N-[6-(2-hydroxyethoxy)-5-p-tolyl-4-pyrimidinyl]benzenesulfonamide] | 1000 | – | 106 | – | – |
| endothelin: endothelin-1, contractile agonist added in cumulative doses to rat aorta rings [reference compound] | – | – | – | – | 0.3 |

More lines, in order of falling IC50 (endothelin receptors), values ahead:

| IC50 (endothelin receptors) [nM] | Compound | % Decrease in the renal of blood flow (vasoconstriction; i.a., 5 mg/kg) [%] | Dosage ratio (correcting shift) [1] | % Decrease in the renal of blood flow (vasoconstriction; i.v., 10 mg/kg) [%] | EC50 ([1]; in the absence of test compounds, half-maximum contraction) [nM] |
| --- | --- | --- | --- | --- | --- |
| 5000 | O=S(=O)(Nc1ncnc(OCCO)c1-c1ccc(Cl)cc1)c1ccc(C(F)(F)F)cc1 [Example 1, N-[5-(p-chlorophenyl)-6-(2-hydroxyethoxy)-4-pyrimidinyl]-α,α,α-trifluoro-p-toluenesulfonamide] | 7 | 30 | – | – |
| 3000 | COc1ccc(-c2c(NS(=O)(=O)c3ccc(C(C)C)cc3)ncnc2OCCO)cc1 [Example 54, N-[6-(2-hydroxyethoxy)-5-(p-methoxyphenyl)-4-pyrimidinyl]-p-isopropylbenzene-sulfonamide] | – | 21 | – | – |
| 2000 | COc1ccccc1Cc1c(NS(=O)(=O)c2ccc(C(C)(C)C)cc2)ncnc1OCCO [Example 64, p-t-butyl-N-[6-(2-hydroxyethoxy)-5-(o-methoxy-benzyl)-4-pyrimidinyl]benzenesulfonamide] | – | 19 | – | – |
| 1600 | COc1ccccc1Cc1c(NS(=O)(=O)c2ccc(C(C)C)cc2)ncnc1OCCO [Example 63] | – | 23 | – | – |
